Reference: US8709743B2, “Inhibitors of bacterial nitric oxide synthase, and related screening methods” (Massachusetts Institute of Technology, priority 2007, dated 2014)

What was measured:
[1] = system: Raw 264.7 murine macrophage; test: Detection of NO produced by iNOS in LPS and IFN-γ stimulated Raw 264.7 cells (fluorescence microscopy); assay type: cell-based; conditions: 12 h incubation period
[2] = FL5 binding of Cu(II): absorption titration with CuCl2 and fluorescence quenching; conditions: 1 μM FL5 solution, 37° C.
Protocol: Derivatized fluorescein molecules are excellent biosensors because they excite and emit in a region of the visible spectrum that is relatively free of interference. We prepared the fluorescein-based ligand FL5 (FIG. 7) by reacting 7′-chloro-4′-fluorescein-carboxaldehyde with 8-aminoquinaldine. We generated the Cu(II) fluorescein-based NO probe Cu(FL5) (FIG. 4) in situ reacting FL5 (prepared as described below) with CuCl2 in a 1:1 ratio in buffered aqueous solution (50 mM PIPES, pH 7.0, 100 mM KCl). […] A Job's plot was constructed to evaluate the nature of the FL5:Cu(II) complex by following the UV-vis absorption spectral change at 512 nm in pH 7.0 buffered solution. A break at 0.5 indicated the formation of a 1:1 complex.
The fluorescence of a 1 μM FL5 solution was diminished by 18±3% upon introduction of an equimolar quantity of CuCl2 at 37° C. Addition of excess NO to a buffered aqueous Cu(FL5) solution led to an immediate 11.2±1.5-fold increase in fluorescence (FIG. 8). […] The lower detection limit for NO is 5 nM.

[3] = Fluorescence response of the sensor to NO in buffered aqueous solution
[4] = system: SK—N—SH human neuroblastoma cells; test: Detection of NO produced by cNOS in estradiol-stimulated SK—N—SH cells (fluorescence microscopy); assay type: cell-based
Protocol: (§1) FIG. 10 illustrates Cu(FL5) detection of NO produced by cNOS. (a) NO detection in SK—N—SH cells by Cu^II(FL5). Left to right: 25 min incubation of Cu(FL5) (1 μM) and 5, 10, 15, 25 min after co-treatment of Cu(FL5) (1 μM) and 17β-estradiol (100 nM). Images were taken with a Nikon Eclipse TS100 microscope after removing the DMEM media and washing the cells with PBS. Top: fluorescence images; bottom: phase contrast images. (b) Fluorescence intensity (F(t)/FCu(FL5)) from a was plotted against incubation time. (c) NO production with or without of L-NNA. Right: NO detection in cells after 10 min co-incubation of Cu(FL5) (1 μM) and 17β-estradiol (100 nM). Left: NO detection in cells pre-treated with L-NNA for 1 h before addition of Cu(FL5) and 17β-estradiol.
We investigated the ability of Cu(FL5) to detect NO produced in SK—N—SH human neuroblastoma cells under physiological conditions, since constitutive NO synthase (“cNOS”) in this cell line can be activated by estrogen to produce NO. […] The NO-dependent fluorescence response, monitored after simultaneous administration of 17β-estradiol (100 nM) and Cu(FL5) (1 μM) to the cells, was complete within 5 min with a 4.0±0.6-fold increase in fluorescence (FIGS. 10a and b). […]
Firstly, Cu(FL5) visualizes NO in the estradiol-stimulated neuroblastoma cells with brighter fluorescence than DAF-2 DA (o-diaminofluorescein diacetate). […]

cNOS = test: Attenuation of Cu(FL5) fluorescence response by cNOS inhibitor in SK—N—SH cells; assay type: cell-based, human; conditions: SK—N—SH cells pre-treated with L-NNA for 1 h, 17β-estradiol
Protocol: as §1
We investigated the ability of Cu(FL5) to detect NO produced in SK—N—SH human neuroblastoma cells under physiological conditions, since constitutive NO synthase (“cNOS”) in this cell line can be activated by estrogen to produce NO. Estrogen administration leads to an increase in the cytosolic Ca(II) concentration that alters the structure of calmodulin, which in turn activates cNOS. The NO-dependent fluorescence response, monitored after simultaneous administration of 17β-estradiol (100 nM) and Cu(FL5) (1 μM) to the cells, was complete within 5 min with a 4.0±0.6-fold increase in fluorescence (FIGS. 10a and b). […]

iNOS = molecular target: T1, iNOS (Mus musculus, UniProt P29477); test: Attenuation of Cu(FL5) fluorescence response by iNOS inhibitor in stimulated Raw 264.7 cells; assay type: cell-based, murine
T1 construct: endogenous in cells; host or cells: Raw 264.7 murine macrophage cells (ATCC), stimulated with LPS and IFN-gamma
T1 sequence (P29477 whole entry): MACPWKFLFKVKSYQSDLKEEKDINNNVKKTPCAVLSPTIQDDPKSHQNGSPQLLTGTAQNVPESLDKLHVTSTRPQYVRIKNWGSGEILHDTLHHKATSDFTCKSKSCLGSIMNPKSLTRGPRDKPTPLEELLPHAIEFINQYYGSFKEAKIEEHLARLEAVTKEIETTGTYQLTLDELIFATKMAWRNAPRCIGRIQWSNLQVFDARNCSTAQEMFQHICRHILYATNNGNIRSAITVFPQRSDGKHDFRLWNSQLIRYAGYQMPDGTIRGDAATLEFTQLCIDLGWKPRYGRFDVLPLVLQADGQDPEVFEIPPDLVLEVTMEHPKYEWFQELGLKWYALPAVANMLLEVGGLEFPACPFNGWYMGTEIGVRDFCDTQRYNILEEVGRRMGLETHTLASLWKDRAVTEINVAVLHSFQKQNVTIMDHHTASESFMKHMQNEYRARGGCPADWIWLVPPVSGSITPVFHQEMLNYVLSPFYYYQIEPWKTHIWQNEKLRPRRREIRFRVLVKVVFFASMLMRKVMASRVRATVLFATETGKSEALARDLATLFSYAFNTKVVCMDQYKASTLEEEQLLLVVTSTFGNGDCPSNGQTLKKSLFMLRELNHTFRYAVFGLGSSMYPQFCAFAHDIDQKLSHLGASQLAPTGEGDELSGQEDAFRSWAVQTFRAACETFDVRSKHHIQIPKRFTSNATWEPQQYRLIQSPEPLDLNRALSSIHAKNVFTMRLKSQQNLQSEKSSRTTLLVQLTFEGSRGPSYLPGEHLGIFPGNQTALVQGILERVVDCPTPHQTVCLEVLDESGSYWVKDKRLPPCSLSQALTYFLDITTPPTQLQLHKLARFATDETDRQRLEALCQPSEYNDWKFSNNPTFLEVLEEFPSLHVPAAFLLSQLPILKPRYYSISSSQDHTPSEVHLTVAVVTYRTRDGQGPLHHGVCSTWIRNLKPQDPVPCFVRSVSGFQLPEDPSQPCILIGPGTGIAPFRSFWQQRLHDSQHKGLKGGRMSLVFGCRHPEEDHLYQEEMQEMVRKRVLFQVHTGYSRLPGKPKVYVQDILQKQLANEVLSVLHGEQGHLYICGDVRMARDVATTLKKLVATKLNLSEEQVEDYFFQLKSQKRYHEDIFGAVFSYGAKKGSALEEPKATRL

[5] = Stability of nitrosated ligand at pH 7.0 (LC-MS); assay type: physicochemical; conditions: pH 7.0 buffered aqueous solution
Excerpt: High resolution MS of FL5-^14NO and FL-^15NO were also obtained, showing m/z=600.0729 for FL5-^14NO and 601.0736 for FL5-^15NO, corresponding to [FL5+NO—H+Cl]^− (calcd. m/z 600.0729 and 601.0700).

Cc1ccc2cccc(NCc3c(O)ccc4c(-c5ccccc5C(=O)O)c5cc(Cl)c(=O)cc-5oc34)c2n1 [FL5, 2-{2-chloro-6-hydroxy-5-[(2-methyl-quinolin-8-ylamino)-methyl]-3-oxo-3H-xanthen-9-yl}-benzoic acid]
turn-on fluorescence in stimulated Raw 264.7 cells without Cu(II) ion [1]: turn-on fluorescence emission was not observed | fluorescence diminished upon introduction of an equimolar quantity of CuCl2 [2]: 18±3% | increase in fluorescence when treated with excess NO over 30 min ([3]; no Cu(II): copper-free FL5 or FL5 with Cu(I)): 1.5±0.2 fold | fluorescence change in stimulated SK—N—SH cells in the absence of Cu(II) ion ([4]; over a period of 25 min): no fluorescence increase

CC(=O)Oc1ccc2c(c1)Oc1cc(OC(C)=O)ccc1C21OC(=O)c2cc(N)c(N)cc21 [DAF-2 DA, o-diaminofluorescein diacetate, reference compound]
fluorescence change of treated cells after activation of cNOS ([4]; 30 min after activation of cNOS): only a slight fluorescence increase

N=C(NCCC[C@H](N)C(=O)O)N[N+](=O)[O-] [L-NNA, N^G-nitro-L-arginine]
Cu(FL5) fluorescence response in the presence of cNOS inhibitor (cNOS): notably weaker fluorescence response

CNC(=N)NCCC[C@H](N)C(=O)O [L-NMA, N^G-methyl-L-arginine]
Cu(FL5) fluorescence response in the presence of iNOS inhibitor (iNOS): notably weaker fluorescence response

o-diaminofluorescein [DAF-2, reference compound]
fluorescence in the presence of NO and the absence of O2 ([3]; over a period of 1 h): unchanged

Cc1ccc2cccc(N(Cc3c(O)ccc4c(-c5ccccc5C(=O)O)c5cc(Cl)c(=O)cc-5oc34)N=O)c2n1 [FL5-NO, 2-{2-chloro-6-hydroxy-5-[((2-methylquinolin-8-yl)(nitroso)amino)-methyl]-3-oxo-3H-xanthen-9-yl}-benzoic acid]
stability at pH 7.0 [5]: stable for several days
